Test results: patent US7442383B2, “Use of xenon for the control of neurological deficits associated with cardiopulmonary bypass” (Protexeon Limited, priority 2002, dated 2008)

What was measured:
rat CPB model [1] = assay: Morris water maze neurocognitive testing after CPB; assay type: in vivo; settings: 10 postoperative days; speeds 4.7 to 6.2 inch/sec
Text: The methodology of the CPB model used in the current study has been previously reported (Anesthesiology 2001, 95:1485-91). Briefly, anesthesia was induced in male Sprague-Dawley rats (12-14 weeks, 350-380 gm; Harlan, Indianapolis, Ind.) with 5% isoflurane in oxygen-enriched air in a plastic box. Following orotracheal intubation with a 14-gauge cannula, the lungs were mechanically ventilated (40% O2/balance N2) to maintain a PaCO2 of 36-42 mmHg. During surgical preparation, anesthesia was maintained with 2.0-2.5% isoflurane and the rectal and pericranial temperatures were monitored and servo-controlled at 37.5±0.1° C. (YSI 400 series thermistor and 73ATA Indicating controller; YSI, Yellow Springs, Ohio) with a heating blanket and convective forced-air heating system. […]
The CPB circuit (FIG. 2) consisted of a venous reservoir, a peristaltic pump and a membrane oxygenator, all of which were connected via 1.6 mm internal diameter silicone tubing (Tygon®; Cole-Parmer Instrument Co., Vernon Hills, Ill.). […] The venous oxygen saturation from the venous return line was measured continuously using an Oximetrix® Monitor and Opticath® Catheter (Abbot Laboratories, North Chicago, Ill.). Arterial blood gases were performed using a IL 1306 blood gas analyzer (Instrument Laboratories, Inc., Lexington, Mass.) with hemoglobin determined using an OSM3 Hemoximeter® (Radiometer Inc., Copenhagen, Denmark). […]

rat CPB model [2] = assay: General behavioural changes after emergence from anesthesia; assay type: in vivo; settings: MK801 0.15 mg/kg i.v.
Experimental: (§1) After complete of all surgical procedures as described as above, rats were randomly divided into one of four groups. […] CPB group: rats (n=10) were subjected to 60 min of non-pulsatile CPB with a membrane oxygenator receiving a mixture of 30% O2 and 65% N2. CPB+MK801 group: rats (n=10) received MK801 (0.15 mg/kg, i.v.) 15 min prior to 60 min of CPB with similar concentrations of gases as in group 2. The dose of MK801 was chosen from pilot studies, in which its side effect can be kept at minmal level. CPB+Xenon group: rats (n=10) underwent 60 min of CPB with a membrane oxygenator receiving a mixture of 30% O2 and 60% xenon.
All animals were able to drink and to eat after emergence.

rat CPB model [3] = assay: Standardized functional neurologic (neuromotor) testing after CPB; assay type: in vivo; settings: for neurologic outcome, difference among groups: 12th postoperative day
Text: The methodology of the CPB model used in the current study has been previously reported (Anesthesiology 2001, 95:1485-91). Briefly, anesthesia was induced in male Sprague-Dawley rats (12-14 weeks, 350-380 gm; Harlan, Indianapolis, Ind.) with 5% isoflurane in oxygen-enriched air in a plastic box. Following orotracheal intubation with a 14-gauge cannula, the lungs were mechanically ventilated (40% O2/balance N2) to maintain a PaCO2 of 36-42 mmHg. During surgical preparation, anesthesia was maintained with 2.0-2.5% isoflurane and the rectal and pericranial temperatures were monitored and servo-controlled at 37.5±0.1° C. (YSI 400 series thermistor and 73ATA Indicating controller; YSI, Yellow Springs, Ohio) with a heating blanket and convective forced-air heating system. The superficial caudal epigastric artery, a branch of a femoral artery, was cannulated with PE-10 tubing for monitoring mean arterial pressure (MAP). During cardiopulmonary bypass (CPB) rats were anesthetized with fentanyl (30 μg/kg, i.v.), midazolam (0.4 mg/kg, i.v.) and atracurium (0.5 mg/kg, i.v.) as a bolus of injection and followed by a continuous infusion of the mixture of three with a syringe pump (2.5 μg/kg/min for fentanyl, 0.03 mg/kg/min for midazolam and 0.08 mg/kg/min for atracurium). Pilot studies had been confirmed that with this anesthetic regimen, the animals had enough depth of anesthesia during CPB.
The CPB circuit (FIG. 2) consisted of a venous reservoir, a peristaltic pump and a membrane oxygenator, all of which were connected via 1.6 mm internal diameter silicone tubing (Tygon®; Cole-Parmer Instrument Co., Vernon Hills, Ill.). The CPB circuit was primed with approximately 40 ml of whole blood obtained prior to the start of the experiment from two heparinized (100IU/rat, i.v.) donor rats (275-320 gm) which were exsanguinated under isoflurane anesthesia. The drained blood traversed a warmed venous reservoir (jacketed with circulating water from a heat pump) to a peristaltic pump (Masterflex®; Cole-Parmer Instrument Co., Vernon Hills, Ill.) to a membrane oxygenator (a modified Cobe Micro® neonatal oxygenator with a surface area of 0.33 m^2; Cobe Cardiovascular, Inc., Arvada, Colo.). A closed-circuit gas delivery system fed the appropriate gas into the oxygenator after which blood was inflsed back into the rat. An in-line flow probe (2N806 flow probe and T208 volume flowmeter; Transonics Systems, Inc., Ithaca, N.Y.) was used to continuously measure CPB flow. Arterial line inflow temperature was maintained at 37.5° C. using a circulating water bath system. The venous oxygen saturation from the venous return line was measured continuously using an Oximetrix® Monitor and Opticath® Catheter (Abbot Laboratories, North Chicago, Ill.). Arterial blood gases were performed using a IL 1306 blood gas analyzer (Instrument Laboratories, Inc., Lexington, Mass.) with hemoglobin determined using an OSM3 Hemoximeter® (Radiometer Inc., Copenhagen, Denmark).
as §1, with “xenon. […]” for “xenon.”

[4] = tested on: mouse neuronal/glial co-culture; assay: LDH release from neuronal/glial co-culture, temperature variation study; assay type: cell-based; settings: xenon concentration (% atm)
Experimental: The effects of xenon as a neuroprotectant were investigated at normal body temperature (37° C.) and at a lower temperature (33° C.), for example, as may pertain during CPB. The study was based on measuring LDH release from a mouse neuronal/glial co-culture in accordance with the method described in WO 01/08692 (in the name of Imperial College of Science, Technology and Medicine).

[5] = 1st postoperative day, CPB group 5.2±1.5, sham 7.6±0.8
[6] = 3rd postoperative day, CPB group 5.8±1.8, sham 8.3±0.7

Row | SMILES | swimming speeds, difference among groups (rat CPB model [1]) | duration of behavioural disturbances (rat CPB model [2]) | general behavioural changes (rat CPB model [2]) | neurologic outcome (functional neurologic score, zero to nine scale, best score=9) (rat CPB model [3]; [5]) | neurologic outcome (functional neurologic score, zero to nine scale, best score=9) (rat CPB model [3]; [6]) | neurologic outcome, difference among groups (rat CPB model [3]) | EC50 for reduction of LDH release ([4]; 33° C.) | EC50 for reduction of LDH release ([4]; 37° C.)
1 | C[C@]12N[C@H](Cc3ccccc31)c1ccccc12 [MK801] | no significant differences | 1 to 2 h | hyperactivity, head weaving and related disturbances of motor coordination | 6.2±1.4 | 7.4±1.8 | no difference |  | 
2 | [Xe] [xenon] | no significant differences |  |  | 8.3±0.5 | 8.9±0.2 | no difference | 11.5+/−2.0% | 35.9+/−2.2%
